This passage reports Activity results from ChEMBL document CHEMBL4359927, “Structural optimization and neurotrophic activity evaluation of neurotrophic gentiside derivatives” (Bioorg Med Chem Lett, 2019).

The subject of series [1] is PC-12. Description: Induction of neurite outgrowth in rat PC12 cells assessed as increase in neurite length at 1 uM incubated for 48 hrs by phase contrast microscopy. The class given is functional, cell-based.
Series [2] relates to PC-12. The experiment in a line: Induction of neurite outgrowth in rat PC12 cells assessed as increase in neurite length incubated for 48 hrs by phase contrast microscopy. The class given is functional, cell-based.
Series [3] relates to PC-12. Description: Cytotoxicity against rat PC12 cells assessed as reduction in cell viability at >5 uM incubated for 48 hrs. The class given is cell-based. The following applies: pc-12, 48 h.
For series [4], the system named is PC-12. The experiment in a line: Cytotoxicity against rat PC12 cells assessed as reduction in cell viability at 10 uM incubated for 48 hrs. The class given is cell-based. The following applies: pc-12, 48 h.
The subject of series [5] is PC-12. Description: Induction of neurite outgrowth in rat PC12 cells assessed as increase in neurite length at 30 uM incubated for 48 hrs by phase contrast microscopy. The class given is functional, cell-based.
For series [6], the system named is PC-12. Description: Induction of neurite outgrowth in rat PC12 cells assessed as increase in neurite length at 10 uM incubated for 48 hrs by phase contrast microscopy. The class given is functional, cell-based.

Active and inactive are the calls of the source. No cut-off for these calls is given here.

Turning to `CCCCCCCCCc1ccc(COC(=O)c2cccc(O)c2O)cc1`, the result with PC-12 [1] was Active. The Activity entry in the series with PC-12 [2] is “Dose-dependent effect”; in the series on PC-12 [3], “Toxic”; with PC-12 [4], “Toxic”.

In the case of `CCCCCCCC/C=C/c1ccc(COC(=O)c2cccc(O)c2O)cc1`, the result in the series on PC-12 [1] was Active.

Regarding `O=C(OCCCc1ccccc1)c1cccc(O)c1O`, the outcome in the series on PC-12 [5] was inactive.

Take `CCCCCCCCCCCCCCOC(=O)c1csc(N)n1`: the result with PC-12 [1] was inactive.

On to `O=C(OCc1ccccc1)c1cccc(O)c1O`, for which the result in the series with PC-12 [5] was Active.

On to `CCCCCc1ccc(-c2ccc(COC(=O)c3cccc(O)c3O)cc2)cc1`, for which, in the series with PC-12 [6], the outcome was inactive.

In the case of `CCCCCCCCCCc1ccc(COC(=O)c2cccc(O)c2O)cc1`, in the series with PC-12 [1], the result was Active.

For `CCCCCCCCCCc1ccc(OC(=O)c2cccc(O)c2O)cc1`, the outcome in the series on PC-12 [1] was Active. For the same molecule, the Activity result with PC-12 [2] is “Dose-dependent effect”; in the series on PC-12 [3], “Toxic”; in the series with PC-12 [4], “Toxic”.

Turning to `CCCCCCCCCCCCCCOC(=O)c1c(O)c(=O)[nH]c2ccccc12`, in the series on PC-12 [1], the outcome was Active. The Activity result in the series with PC-12 [2] was “Dose-dependent effect”; in the series on PC-12 [3], “Toxic”; in the series on PC-12 [4], “Toxic”.

As for `CCCCCCCCCCCCCCOC(=O)c1ccn[nH]1`, the outcome with PC-12 [1] was inactive.

On to `O=C(OCc1ccc(-c2ccccc2)cc1)c1cccc(O)c1O`, for which the outcome in the series on PC-12 [6] was inactive.

With `O=C(Oc1ccc(-c2ccccc2)cc1)c1cccc(O)c1O`, the result in the series with PC-12 [6] was inactive.

For the molecule `O=C(OCCCCc1ccccc1)c1cccc(O)c1O`, the outcome in the series on PC-12 [5] was inactive.

Take `O=C(OCCc1ccccc1)c1cccc(O)c1O`: the result in the series on PC-12 [5] was inactive.

Take `CCCCCCCCCCCCCCOC(=O)c1cccc(O)c1O`: the result in the series on PC-12 [1] was Active. Also, the Activity result in the series on PC-12 [3] and in the series on PC-12 [4] was “Toxic” each time.

In the case of `CCCCCCCCCCCCCCOC(=O)c1cccc2nc[nH]c12`, the outcome in the series with PC-12 [1] was inactive.

In the case of `CCCCCCc1ccc(-c2ccc(OC(=O)c3cccc(O)c3O)cc2)cc1`, in the series with PC-12 [6], the outcome was inactive.

With `CCCCCCC/C=C/c1ccc(COC(=O)c2cccc(O)c2O)cc1`, in the series with PC-12 [1], the outcome was Active.

As to `O=C(OCCCCCCCCCCc1ccccc1)c1cccc(O)c1O`, in the series with PC-12 [5], the outcome was inactive.

For `O=C(Oc1ccccc1)c1cccc(O)c1O`, the outcome in the series with PC-12 [5] was Active.
